Measurements: US4443448A, “Indane derivatives, pharmaceutical compositions thereof and method of preparation” (priority 1980, dated 1984)

What was measured:
[1] = Mouse grid shock (analgesia); format: in vivo; details: mice, minimal effective dose, in mg/kg
Procedure, shortened: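 Mice (five per dose) on an electrified grid received 20 cycles/s, 5 msec square-wave pulses of rising current until they squeaked, giving the pain threshold in mA. Results are % increase over the pre-dose value, or an MED by van der Waerden X-test.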

[2] = in vivo; set-up: species or system rats; details: for Ratio catalep./Amphet.: catalepsy ED50 / amphetamine antagonism ED50; for ED50: rat, in vivo, po, rats, p.o., strongest effect within first 6 hours, read-out: Catalep. (catalepsy wire mesh, rat, max, ED50)
Procedure, shortened: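 Oral dosing at 4 fixed-scale levels, five animals per group. Rats were placed on a vertical 1 cm-mesh wire netting at 60, 120, 180, 240, 300 and 360 min post-dose. Immobility for 15 s scored cataleptic; sliding passively or climbing scored non-cataleptic.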

[3] = system: methylphenidate; test: Methylphenidate antagonism in mice; format: in vivo; details: Mus musculus, ip, 2 h, read-out: MePh antag. ED50 2 hr i.p., mice, test substance i.p., 2 hr before methylphenidate 60 mg/kg s.c.
Procedure, shortened: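 Test substance given i.p. 2 or 24 h before methylphenidate 60 mg/kg s.c.; mice observed in pairs for 1 h on corrugated paper for biting. Three pairs per dose, scored as fraction of pairs not biting; ED50 in mg/kg.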

[4] = in vivo; details: iv
[5] = Pharmacological animal tests, general statements on activity; details: in vivo
Method: After recrystallisation from 500 milliliters of methanol 18.5 grams of the (-)-isomer of Lu 13-092, D-(-)-tartrate were obtained, melting at 207°-209° C. […] The novel indanes of Formula I were tested pharmacologically in standard and reliable animal tests.

[6] = system: amphetamine; test: Amphetamine antagonism in rats; format: in vivo; details: Rattus norvegicus, po, rats, p.o., amphetamine 10 mg/kg base i.v.; read-out: Amphetamine antag. ED50 p.o.
Procedure, shortened: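 Rats dosed p.o. with test substance, then 2 or 24 h later given amphetamine sulphate 13.6 mg/kg (10 mg/kg base) i.v.; five rats per dose. Stereotypy (head movements, compulsive gnawing) scored for 1 min at 55 and 65 min; fraction of rats without stereotypy used to derive ED50 in mg/kg.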

Structure (SMILES)	MED Grid Shock [1]	Ratio catalep./Amphet. [2]	ED50 [2] [mg/kg]	ED50 [3] [mg/kg]	LD50 [4] [mg/kg]	neuroleptic activity [5]	ED50 [6] [mg/kg]
CN1CCN([C@@H]2C[C@@H](c3ccc(F)cc3)c3ccc(F)cc32)CC1 (relative stereo) [Lu 13-092, trans-1-methyl-4-(3-(4'-fluorophenyl)-6-fluoro-1-indanyl)piperazine]	1.3	5.5	81	4.2	80	the neuroleptic active isomer is the trans-isomer	14.8
CC(C)N1CCN(C2CC(c3ccc(F)cc3)c3ccc(F)cc32)CC1 (centres unmarked) [Lu 17-062, 1-Isopropyl-4-(3-(4'-fluorophenyl)-6-fluoro-1-indanyl)piperazine]	5	1.4	14	1.3	113	neuroleptical active isomer	10
